Counter-ions that a name gives are not always drawn.

For orientation: IC50 means the concentration needed to halve the response being measured.

Chain of TDP-43 (Q13148 whole entry): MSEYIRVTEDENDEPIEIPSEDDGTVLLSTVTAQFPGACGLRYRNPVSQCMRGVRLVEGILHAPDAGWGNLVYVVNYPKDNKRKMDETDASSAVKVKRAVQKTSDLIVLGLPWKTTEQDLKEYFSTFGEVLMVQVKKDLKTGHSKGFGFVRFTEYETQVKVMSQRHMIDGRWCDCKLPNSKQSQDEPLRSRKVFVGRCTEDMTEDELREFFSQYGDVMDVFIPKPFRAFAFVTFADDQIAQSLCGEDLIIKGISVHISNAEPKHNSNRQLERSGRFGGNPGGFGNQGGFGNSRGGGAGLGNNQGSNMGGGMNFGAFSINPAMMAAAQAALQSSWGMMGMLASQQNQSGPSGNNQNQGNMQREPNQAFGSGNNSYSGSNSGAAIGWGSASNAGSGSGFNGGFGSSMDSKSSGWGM

This assay has as its target TDP-43 (Homo sapiens, UniProt Q13148). Kind of assay: TDP-43-DNA alpha-screen assay (bt-TAR-32 displacement). In kind it is binding. As to conditions: bt-TAR-32 0.125 nM, 15 ng/ml TDP-43. The procedure: Alpha-screen assay: Displacement of bt-TG6 binding was measured using AlphaScreen technology as previously described (Cassel, J. A. et al., Journal of Biomolecular Screening, 2010, 15, 1099-1106; Cassel, J. A.; Reitz, A. B. et al. The effects of small molecule inhibitors of nucleic acid binding to TDP-43 on TDP-43 metabolism and function. Biochimie, 2012, 94, 1974-1981).
Test compounds were diluted in assay buffer (25 mM Tris [pH 7.4], 0.1% bovine serum albumin [BSA], 0.1% Triton X-100) at 4× the desired final concentration. Dilutions of test compound (50 to 0.02 μM in half-log dilutions with a no compound control well) were pre-incubated with TDP-43 (5 μl of 60 ng/mL) pre-bound to AlphaScreen® anti-GST acceptor beads (5 μl of 40 μg/mL) in 15 μl volume for 30 minutes at 23° C. with shaking. Assays were initiated by the addition of 5 μl bt-TAR-32 (5′-CTGCTTTTTGCCTGTACTGGGTCTCTGTGGTT-3′) 0.5 nM pre-bound to AlphaScreen® strepavidin donor beads (40 μg/mL). After incubation in the dark at 23° C. for 90 minutes with shaking, the AlphaScreen® signal was measured on a Synergy 2 plate reader (BioTek, Winooski, Vt.). IC50 values were determined from nonlinear regression fits of the data to a Sigmoidal dose response variable slope model in GraphPad Prism. Final assay conditions are 25 mM Tris [pH 7.4], 0.1% bovine serum albumin [BSA], 0.100 Triton X-100, 15 ng/ml TDP-43, 0.125 nM bTAR32, 10 ug/ml […].
In general terms: Bead proximity is the source of the signal in Alpha formats.
For the compound `COc1ccc(-c2cc(NCCCN3CC4CCC(N)C4C3)c3ccccc3n2)cc1` (stereo not shown) [Example 34, N-(3-(4-Aminohexahydrocyclopenta[c]pyrrol-2(1H)-yl)propyl)-2-(4-methoxyphenyl)quinolin-4-amine trihydrochloride], the IC50 was determined as 210 nM. The result for `COc1ccc(-c2cc(NCCCN3CC4CCN(C(=O)OC(C)(C)C)CC4C3)c3ccccc3n2)cc1` (stereo not shown) [Example 35, tert-Butyl 2-(3-((2-(4-methoxyphenyl)quinolin-4-yl)amino)propyl) hexahydro-1H-pyrrolo[3,4-c]pyridine-5(6H)-carboxylate] reads 2670 nM; that for `COc1ccc(-c2cc(NCCCN3CC4CCNCC4C3)c3ccccc3n2)cc1` (stereo not shown) [Example 36, N-(3-(Hexahydro-1H-pyrrolo[3,4-c]pyridin-2(3H)-yl)propyl)-2-(4-methoxyphenyl)quinolin-4-amine dihydrochloride], 150 nM; that for `COc1ccc(-c2cc(NCCCN(C)CC3CCN(CC4CC4)CC3)c3ccccc3n2)cc1` [Example 38, N^1-((1-(Cyclopropylmethyl)piperidin-4-yl)methyl)-N^3-(2-(4-methoxyphenyl)quinolin-4-yl)-N^1-methylpropane-1,3-diamine], 220 nM. The result for `COc1ccc(-c2cc(NCCC3CCCCN3CCCN)c3ccccc3n2)cc1` (stereo not shown) [Example 39, N-(2-(1-(3-Aminopropyl)piperidin-2-yl)ethyl)-2-(4-methoxyphenyl) quinolin-4-amine dihydrochloride] reads 130 nM; that for `COc1ccc(-c2cc(NCCCNC3CCN(Cc4ccc(F)cc4)CC3)c3ccccc3n2)cc1` [Example 40, N^1-(1-(4-Fluorobenzyl)piperidin-4-yl)-N^3-(2-(4-methoxyphenyl)quinolin-4-yl)propane-1,3-diamine], 300 nM; that for `COc1ccc(-c2cc(NCCCN3CCC4(C3)CN(C(=O)OC(C)(C)C)C4)c3ccccc3n2)cc1` [Example 41, tert-Butyl 6-(3-((2-(4-methoxyphenyl)quinolin-4-yl)amino)propyl)-2,6-diaza spiro[3.4]octane-2-carboxylate], 1470 nM.

In the case of `COc1ccc(-c2cc(NCCCN3CCC4(CNC4)C3)c3ccccc3n2)cc1` [Example 42, N-(3-(2,6-Diazaspiro[3.4]octan-6-yl)propyl)-2-(4-methoxyphenyl)quinolin-4-amine], the concentration for half-maximal inhibition (IC50) was determined as 230 nM.

In the case of `COc1ccc(-c2cc(NCCCN3CCCN(C)CC3)c3ccccc3n2)cc1` [Example 43, 2-(4-Methoxyphenyl)-N-(3-(4-methyl-1,4-diazepan-1-yl)propyl)quinolin-4-amine], the concentration for half-maximal inhibition (IC50) stood at 1190 nM. For `COc1ccc(-c2cc(NCCCNCCC3CCCCN3C(=O)OC(C)(C)C)c3ccccc3n2)cc1` (stereo not shown) [Example 44, tert-Butyl 2-(2-((3-((2-(4-methoxyphenyl)quinolin-4-yl)amino)propyl)amino)ethyl)piperidine-1-carboxylate], the half-inhibitory concentration (IC50) came out at 2070 nM. Next, `COc1ccc(-c2cc(NCCCNCCC3CCCCN3)c3ccccc3n2)cc1` (stereo not shown) [Example 45, N^1-(2-(4-methoxyphenyl)quinolin-4-yl)-N^3-(2-(piperidin-2-yl)ethyl)propane-1,3-diamine]: 710 nM; `COc1ccc(-c2cc(NCCCN3CCN(CCCN)CC3)c3ccccc3n2)cc1` [Example 46, N-(3-(4-(3-Aminopropyl)piperazin-1-yl)propyl)-2-(4-methoxyphenyl)quinolin-4-amine hydrochloride]: 360 nM. Take `COc1ccc(-c2cc(NCCCN(C)CC3CCN(C(=O)OC(C)(C)C)CC3)c3ccccc3n2)cc1` [Example 47, tert-Butyl 4-{[(3-{[2-(4-methoxyphenyl)quinolin-4-yl]amino}propyl)(methyl)amino]methyl}piperidine-1-carboxylate]: the half-inhibitory concentration (IC50) worked out at 4050 nM. Next, `COc1ccc(-c2cc(NCCCN(C)CC3CCNCC3)c3ccccc3n2)cc1` [Example 48, N-(3-(N-Methyl-N-((piperidin-4-yl)methyl)amino)propyl)-2-(4-methoxyphenyl)quinolin-4-amine]: 100 nM; `COc1ccc(-c2cc(NCCCNS(=O)(=O)c3ccc(-c4nn[nH]n4)cc3)c3ccccc3n2)cc1` [Example 49, N-(3-((2-(4-Methoxyphenyl)quinolin-4-yl)amino)propyl)-4-(2H-tetrazol-5-yl)benzene sulfonamide]: 7200 nM. For `COc1ccc(-c2cc(NCCCNc3ccc(-c4nn[nH]n4)cc3)c3ccccc3n2)cc1` [Example 50, N^1-(4-(2H-Tetrazol-5-yl)phenyl)-N^3-(2-(4-methoxyphenyl)quinolin-4-yl) propane-1,3-diamine], the half-maximal inhibitory concentration (IC50) was found to be 15300 nM. The result for `COc1ccc(-c2cc(NCCCN3CCC(CO)CC3)c3ccccc3n2)cc1` [Example 51, (1-(3-((2-(4-Methoxyphenyl)quinolin-4-yl)amino)propyl)piperidin-4-yl) methanol] reads 1490 nM. The result for `CCN(CC)CC(O)CNCCCNc1cc(-c2ccc(OC)cc2)nc2ccccc12` (stereo not shown) [Example 52, 1-(Diethylamino)-3-((3-((2-(4-methoxyphenyl)quinolin-4-yl)amino)propyl)amino)propan-2-ol dihydrochloride] reads 170 nM; that for `COc1ccc(-c2cc(NCCCNCc3ccnn3C)c3ccccc3n2)cc1` [Example 53, N^1-(2-(4-Methoxyphenyl)quinolin-4-yl)-N^3-((1-methyl-1H-pyrazol-5-yl)methyl) propane-1,3-diamine dihydrochloride], 3270 nM; that for `COc1ccc(-c2cc(NCCCNCCc3ccccn3)c3ccccc3n2)cc1` [Example 54, N^1-(2-(4-methoxyphenyl)quinolin-4-yl)-N^3-(2-(pyridin-2-yl)ethyl)propane-1,3-diamine hydrochloride], 1920 nM.

As for `COc1ccc(-c2cc(NCCCNc3ccc(N4CCCCC4)cc3)c3ccccc3n2)cc1` [Example 55, N^1-(2-(4-Methoxyphenyl)quinolin-4-yl)-N^3-(4-(piperidin-1-yl)phenyl) propane-1,3-diamine dihydrochloride], the IC50 was 970 nM. The result for `COc1ccc(-c2cc(NCC3CCCN(CCCN)C3)c3ccccc3n2)cc1` (stereo not shown) [Example 56, N-((1-(3-Aminopropyl)piperidin-3-yl)methyl)-2-(4-methoxyphenyl)quinolin-4-amine] reads 300 nM. The result for `COc1ccc(-c2cc(NCCCNCCc3c[nH]c4cc(OC)ccc34)c3ccccc3n2)cc1` [Example 57, N-(3-(2-(6-Methoxy-1H-indol-3-yl)ethylamino)propyl)-2-(4-methoxyphenyl) quinolin-4-amine] reads 260 nM. Consider `COc1ccc(-c2cc(NCCCN(CC3CCN(C(=O)OC(C)(C)C)CC3)CC3CCN(C(=O)OC(C)(C)C)CC3)c3ccccc3n2)cc1` [Example 58, tert-Butyl 4-{[({1-[(tert-butoxy)carbonyl]piperidin-4-yl}methyl)(3-{[2-(4-methoxyphenyl)-quinolin-4-yl]amino}propyl)amino]methyl}piperidine-1-carboxylate], for which the concentration for half-maximal inhibition (IC50) turned out to be 26700 nM. For the compound `COc1ccc(-c2cc(NCCCN(CC3CCNCC3)CC3CCNCC3)c3ccccc3n2)cc1` [Example 59, N-(3-(Bis((piperidin-4-yl)methyl)amino)propyl)-2-(4-methoxyphenyl) quinolin-4-amine], the concentration for half-maximal inhibition (IC50) is 100 nM. As to `COc1ccc(CN(C)CCCNc2cc(-c3ccc(OC)cc3)nc3ccccc23)cc1` [Example 60, N^1-(4-Methoxybenzyl)-N^3-(2-(4-methoxyphenyl)quinolin-4-yl)-N^1-methyl propane-1,3-diamine], the IC50 stood at 1970 nM.

Consider `COc1ccc(-c2cc(NC3CCC(NCCCNC(=O)OC(C)(C)C)CC3)c3ccccc3n2)cc1` (stereo not shown) [Example 61, tert-Butyl(3-((4-((2-(4-methoxyphenyl)quinolin-4-yl)amino)cyclohexyl)amino)propyl)carbamate], for which the 50% inhibitory concentration (IC50) worked out at 1350 nM. The result for `COc1ccc(-c2cc(NCCCNCC3CCN(C(=O)OC(C)(C)C)CC3)c3ccccc3n2)cc1` [Example 62, tert-Butyl 4-{[(3-{[2-(4-methoxyphenyl)quinolin-4-yl]amino}propyl)amino]methyl}piperidine-1-carboxylate] reads 1160 nM; that for `COc1ccc(-c2cc(NCCCNCCCNc3ccncc3)c3ccccc3n2)cc1` [Example 63, N^1-(2-(4-methoxyphenyl)quinolin-4-yl)-N^3-(3-(pyridin-4-ylamino)propyl)propane-1,3-diamine dihydrochloride], 100 nM. Turning to `COc1ccc(-c2cc(NC3CCN(CCCN4C(=O)c5ccccc5C4=O)CC3)c3ccccc3n2)cc1` [Example 64, 2-(3-(4-((2-(4-Methoxyphenyl)quinolin-4-yl)amino)piperidin-1-yl)propyl) isoindoline-1,3-dione dihydrochloride], the IC50 was 3600 nM. Next, `COc1ccc(-c2cc(NCC3CCCN(CCCN4C(=O)c5ccccc5C4=O)C3)c3ccccc3n2)cc1` (stereo not shown) [Example 65, 2-(3-(3-(((2-(4-Methoxyphenyl)quinolin-4-yl)amino)methyl)piperidin-1-yl)propyl)isoindoline-1,3-dione]: 730 nM.

For the origin of these results see patent publication US20220388962A1 (Biohaven Therapeutics Ltd., priority 2019, published 2022).
